One data set has as its target phosphorylated MEK1 (Homo sapiens, UniProt Q02750). The experiment in a line: MEK1 binding assay (HTRF, tracer displacement). As to conditions: for inhibition at 2 µM: read-out: % binding (2 µM); for inhibition at 20 µM: read-out: % binding (20 µM). The procedure: The homogeneous time resolved fluorescence (HTRF) assay was performed on a Proxiplate-384 F plus solid back plate (Perkin Elmer, Waltham, MA. USA) with 5 nM GST tagged phosphorylated MEK1 (GST-MEK1), 2 nM europium-labeled anti-GST antibody (Eu-anti-GST), 20 nM kinase tracer 236 and test compound at a variety of concentrations. In the reaction mixture, GST-MEK1 forms a complex with the Eu-anti-GST and the tracer. Excitation of europium (the donor) using a 340-nm excitation filter results in energy transfer to the fluorophore of the tracer. This energy transfer is detected by an increase in the fluorescence emission of the tracer at 665 nm and a decrease in the fluorescence emission of europium at 615 nm. The FRET ratio was calculated by dividing the emission signal at 665 nm by the emission signal at 615 nm. A competitor compound such as a MEK inhibitor replaces the tracer from the complex and decreases the FRET ratio accordingly. The plate was incubated in dark at room temperature for 30 min before measuring the fluorescent emission of each well at 665 and 615 nm using a 340-nm excitation filter, 100-µs delay time, and 200-µs integration time, on a PHERAStar plate reader (BMG Labtech, Durham, NC, USA). […] Data shown as %Inhibition normalized to AZD6244 at 100 µM.

Setting [1] is: HTRF binding to GST tagged phosphorylated MEK1, read-out: IC50.

The values below come from PMC6269873, “Substituted 3-Benzylcoumarins as Allosteric MEK1 Inhibitors: Design, Synthesis and Biological Evaluation as Antiviral Agents” (Molecules, 2013).

Like-named read-outs stand apart in the source and are kept apart here.

Sequence of phosphorylated MEK1 (Q02750 whole entry): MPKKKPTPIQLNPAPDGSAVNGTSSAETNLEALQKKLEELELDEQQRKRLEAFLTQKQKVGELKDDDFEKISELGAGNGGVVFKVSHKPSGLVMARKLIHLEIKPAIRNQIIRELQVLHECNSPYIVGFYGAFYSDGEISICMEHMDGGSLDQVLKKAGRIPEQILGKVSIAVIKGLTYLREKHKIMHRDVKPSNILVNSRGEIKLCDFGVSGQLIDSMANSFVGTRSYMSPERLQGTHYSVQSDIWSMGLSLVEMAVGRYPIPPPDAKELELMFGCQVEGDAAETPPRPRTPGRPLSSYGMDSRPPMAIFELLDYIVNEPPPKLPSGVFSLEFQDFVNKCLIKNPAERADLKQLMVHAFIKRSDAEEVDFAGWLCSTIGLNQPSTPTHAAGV

One may read the melting point as the temperature of the solid-liquid transition. Turning to `CCc1c(Cc2ccccc2)c(=O)oc2cc(O)ccc12` [Compound 4d, 3-Benzyl-4-ethyl-7-hydroxy-2H-chromen-2-one], the melting point was 140 to 141 °C. At phosphorylated MEK1, the inhibition at 2 µM came to 27% and the inhibition at 20 µM is 10.4%.
As for `CCCc1c(Cc2ccccc2)c(=O)oc2cc(O)ccc12` [Compound 4e, 3-Benzyl-7-hydroxy-4-propyl-2H-chromen-2-one], the melting point lay in the range of 139 to 140 °C. Besides, at phosphorylated MEK1, the inhibition at 2 µM was 29.1% and the inhibition at 20 µM was found to be 7.06%.
As to `CCc1c(Cc2ccc(F)cc2)c(=O)oc2cc(O)ccc12` [Compound 4g, 4-Ethyl-3-(4-fluorobenzyl)-7-hydroxy-2H-chromen-2-one], the melting point lay in the range of 131 to 132 °C. Moreover, at phosphorylated MEK1, the inhibition at 2 µM stood at 10.9% and the inhibition at 20 µM stood at 19.6%.
The molecule `CCCc1c(Cc2ccc(F)cc2)c(=O)oc2cc(O)ccc12` [Compound 4h, 3-(4-Fluorobenzyl)-7-hydroxy-4-propyl-2H-chromen-2-one] gave a melting point of 130 to 131 °C. Also, on phosphorylated MEK1, the inhibition at 2 µM worked out at 20.9% and the inhibition at 20 µM turned out to be 20.4%.
In the case of `O=c1cc(CCl)c2ccc(O)cc2o1` [Compound 4i, 4-(Chloromethyl)-7-hydroxy-2H-chromen-2-one], the melting point was in the range of 166 to 167 °C. Moreover, on phosphorylated MEK1, the inhibition at 2 µM stood at 33.3% and the inhibition at 20 µM was 22.4%.
In the same order, the values of `O=c1cc(CO)c2ccc(O)cc2o1` [Compound 4j, 7-Hydroxy-4-(hydroxymethyl)-2H-chromen-2-one] are 148 to 149 °C, 36.3% and 33.6%.
Broadly, the IC50 is the midpoint of a concentration-inhibition curve. `CCc1c(Cc2ccccc2)c(=O)oc2cc(OC(=O)N(C)C)ccc12` [Compound 15, 3-Benzyl-4-ethyl-2-oxo-2H-chromen-7-yl dimethylcarbamate] gave a melting point of 85 to 86 °C. On phosphorylated MEK1, the IC50 amounted to 163 nM, the inhibition at 2 µM was found to be 85% and the inhibition at 20 µM came to 92.8%.
The molecule `CCCc1c(Cc2ccccc2)c(=O)oc2cc(OC(=O)N(C)C)ccc12` [Compound 16, 3-Benzyl-2-oxo-4-propyl-2H-chromen-7-yl dimethylcarbamate] registered a melting point of 117 to 118 °C. Also, on phosphorylated MEK1, the IC50 came to 1040 nM, the inhibition at 2 µM was 70.9% and the inhibition at 20 µM is 95.4%.
Molecule `CCN(CC)C(=O)Oc1ccc2c(C)c(Cc3ccccc3)c(=O)oc2c1` [Compound 20, 3-Benzyl-4-methyl-2-oxo-2H-chromen-7-yl diethylcarbamate] yielded a melting point of 109 °C. In addition, at phosphorylated MEK1, the inhibition at 2 µM is 15.5% and the inhibition at 20 µM was determined as 20%.
As to `CCN(CC)C(=O)Oc1cc2oc(=O)c(Cc3ccccc3)c(C)c2cc1Cl` [Compound 21, 3-Benzyl-6-chloro-4-methyl-2-oxo-2H-chromen-7-yl diethylcarbamate], the melting point fell in the range of 83 to 84 °C. On phosphorylated MEK1, the inhibition at 2 µM was 27% and the inhibition at 20 µM turned out to be 48.1%.
In the case of `CCc1c(Cc2ccccc2)c(=O)oc2cc(OC(=O)N(CC)CC)ccc12` [Compound 22, 3-Benzyl-4-ethyl-2-oxo-2H-chromen-7-yl diethylcarbamate], the melting point was in the range of 64 to 65 °C. Moreover, at phosphorylated MEK1, the inhibition at 2 µM was found to be 6.63% and the inhibition at 20 µM was 48.1%.
On to `CCCc1c(Cc2ccccc2)c(=O)oc2cc(OC(=O)N(CC)CC)ccc12` [Compound 23, 3-Benzyl-2-oxo-4-propyl-2H-chromen-7-yl diethylcarbamate], for which the melting point is 112 to 113 °C. On phosphorylated MEK1, the inhibition at 2 µM was 43.1% and the inhibition at 20 µM came to 46.1%.
`CCN(CC)C(=O)Oc1ccc2c(C)c(Cc3ccc(F)cc3)c(=O)oc2c1` [Compound 24, 3-(4-Fluorobenzyl)-4-methyl-2-oxo-2H-chromen-7-yl diethylcarbamate] gave a melting point of 101 to 102 °C. Moreover, on phosphorylated MEK1, the inhibition at 2 µM was determined as 22.3% and the inhibition at 20 µM is 27.8%.
`CCc1c(Cc2ccc(F)cc2)c(=O)oc2cc(OC(=O)N(CC)CC)ccc12` [Compound 25, 4-Ethyl-3-(4-fluorobenzyl)-2-oxo-2H-chromen-7-yl diethylcarbamate] registered a melting point of 74 to 75 °C. Besides, on phosphorylated MEK1, the “binding affinity (in words)” value was “active”, the inhibition at 2 µM was found to be 25.9% and the inhibition at 20 µM stood at 59.2%.
`CCCc1c(Cc2ccc(F)cc2)c(=O)oc2cc(OC(=O)N(CC)CC)ccc12` [Compound 26, 3-(4-Fluorobenzyl)-2-oxo-4-propyl-2H-chromen-7-yl diethylcarbamate]: the melting point was in the range of 51 to 52 °C. Also, at phosphorylated MEK1, the inhibition at 2 µM was found to be 35.2% and the inhibition at 20 µM came out at 37.5%.
In turn, `CC(=O)Oc1cc2oc(=O)c(Cc3ccccc3)c(C)c2cc1Cl` [Compound 27, 3-Benzyl-6-chloro-4-methyl-2-oxo-2H-chromen-7-yl acetate] had a melting point of 190 °C. Further, on phosphorylated MEK1, the inhibition at 2 µM was 30.6% and the inhibition at 20 µM was determined as 30.8%.
`CCCc1c(Cc2ccccc2)c(=O)oc2cc(OC(C)=O)ccc12` [Compound 30, 3-Benzyl-2-oxo-4-propyl-2H-chromen-7-yl acetate] displayed a melting point of 139 to 140 °C. Also, on phosphorylated MEK1, the inhibition at 2 µM was determined as 15.5% and the inhibition at 20 µM was 25.6%.
The molecule `CCc1c(Cc2ccc(F)cc2)c(=O)oc2cc(OC(C)=O)ccc12` [Compound 32, 4-Ethyl-3-(4-fluorobenzyl)-2-oxo-2H-chromen-7-yl acetate] registered a melting point of 122 to 123 °C. In addition, on phosphorylated MEK1, the “binding affinity (in words)” value is “active”, the inhibition at 2 µM is 94.6% and the inhibition at 20 µM is 101%. The concentration for half-maximal inhibition (IC50) on phosphorylated MEK1 (setting [1]) was 91.2 nM.
`CCC(=O)Oc1cc2oc(=O)c(Cc3ccccc3)c(C)c2cc1Cl` [Compound 34, 3-Benzyl-6-chloro-4-methyl-2-oxo-2H-chromen-7-yl propionate] returned a melting point of 124 to 126 °C. In addition, the IC50 on phosphorylated MEK1 (setting [1]) is 326 nM. Further, at phosphorylated MEK1, the inhibition at 2 µM worked out at 70% and the inhibition at 20 µM is 72.4%.
For `CCC(=O)Oc1ccc2c(C)c(Cc3ccccc3)c(=O)oc2c1` [Compound 35, 3-Benzyl-4-methyl-2-oxo-2H-chromen-7-yl propionate], the melting point is 118 to 119 °C. Besides, the IC50 at phosphorylated MEK1 (setting [1]) came out at 1030 nM. For the same molecule, on phosphorylated MEK1, the inhibition at 2 µM came to 64.5% and the inhibition at 20 µM was found to be 85%.
Molecule `CCCc1c(Cc2ccccc2)c(=O)oc2cc(OC(=O)CC)ccc12` [Compound 37, 3-Benzyl-2-oxo-4-propyl-2H-chromen-7-yl propionate] showed a melting point of 120 to 121 °C. Also, at phosphorylated MEK1, the inhibition at 2 µM amounted to 19.4% and the inhibition at 20 µM turned out to be 38.8%.
For the molecule `CCC(=O)Oc1ccc2c(CC)c(Cc3ccc(F)cc3)c(=O)oc2c1` [Compound 39, 4-Ethyl-3-(4-fluorobenzyl)-2-oxo-2H-chromen-7-yl propionate], the melting point fell in the range of 97 to 98 °C. Also, on phosphorylated MEK1, the “binding affinity (in words)” value is “active”, the inhibition at 2 µM worked out at 75.4% and the inhibition at 20 µM was found to be 76.3%. On phosphorylated MEK1 (setting [1]), the IC50 amounted to 140 nM.
Regarding `CCCC(=O)Oc1cc2oc(=O)c(Cc3ccccc3)c(C)c2cc1Cl` [Compound 41, 3-Benzyl-6-chloro-4-methyl-2-oxo-2H-chromen-7-yl butyrate], the melting point lay in the range of 107 to 108 °C. On phosphorylated MEK1, the inhibition at 2 µM was 21% and the inhibition at 20 µM amounted to 25.8%.
In the same order, the values of `CCCC(=O)Oc1ccc2c(CCC)c(Cc3ccccc3)c(=O)oc2c1` [Compound 44, 3-Benzyl-2-oxo-4-propyl-2H-chromen-7-yl butyrate] are 105 to 106 °C, 14% and 38.9%.
`CCCC(=O)Oc1ccc2c(C)c(Cc3ccc(F)cc3)c(=O)oc2c1` [Compound 45, 3-(4-Fluorobenzyl)-4-methyl-2-oxo-2H-chromen-7-yl butyrate] showed a melting point of 85 to 86 °C. Moreover, at phosphorylated MEK1 (setting [1]), the IC50 amounted to 824 nM. At phosphorylated MEK1, the inhibition at 2 µM came to 45.3% and the inhibition at 20 µM was determined as 72.3%.
In turn, `CCCC(=O)Oc1ccc2c(CC)c(Cc3ccc(F)cc3)c(=O)oc2c1` [Compound 46, 4-Ethyl-3-(4-fluorobenzyl)-2-oxo-2H-chromen-7-yl butyrate] yielded a melting point of 79 °C. Moreover, at phosphorylated MEK1, the “binding affinity (in words)” value is “active”, the inhibition at 2 µM came out at 76.9% and the inhibition at 20 µM came out at 96.5%. Moreover, on phosphorylated MEK1 (setting [1]), the IC50 turned out to be 909 nM.
On to `CCCc1c(Cc2ccc(F)cc2)c(=O)oc2cc(OS(=O)(=O)c3ccc(C)cc3)ccc12` [Compound 82, 3-(4-Fluorobenzyl)-2-oxo-4-propyl-2H-chromen-7-yl 4-methylbenzenesulfonate], for which, at phosphorylated MEK1, the inhibition at 2 µM was found to be 37.5% and the inhibition at 20 µM turned out to be 45.9%.
Consider `O=C(c1ccccc1)c1cc2ccc(O)cc2oc1=O` [Compound 85, 3-Benzoyl-7-hydroxycoumarin], for which, at phosphorylated MEK1, the inhibition at 2 µM came to 23% and the inhibition at 20 µM amounted to 20.5%.
`N#Cc1c(C(=O)c2ccccc2)c(=O)oc2cc(O)ccc12` [Compound 87, 3-Benzoyl-4-cyano-7-hydroxycoumarin]: at phosphorylated MEK1, the inhibition at 2 µM was 31.9% and the inhibition at 20 µM turned out to be 30%.
